For 30 compounds, EC50 and Ki results are on record in PubChem BioAssay AID2039 (NMMLSC, 2009).

Molecules are shown by their SMILES. The source made the active and inactive calls. The rule behind the calls is not given here.

For this assay, the target named is Ras-related C3 botulinum toxin substrate 1 (Homo sapiens) (UniProt P63000). Nature of the assay: activated mutant Rac1 GTP binding inhibitors, SAR follow-up, biochemical, additional analogs, multiplex bead flow cytometry (AID 2039). The following applies: Multiplex flow cytometry bead GTP-binding assay; for Ki: measured here: Ki for Rac1 nucleotide binding.

Consider `COc1ccc(S(=O)(=O)n2c(N)c(C#N)c(-c3ccccc3)c2C(=O)c2ccc(Br)cc2)cc1`, for which the EC50 result is “inactive”.
On to `COc1cc(-c2c(C#N)c(N)n(S(=O)(=O)c3c(C(C)C)cc(C(C)C)cc3C(C)C)c2C(=O)c2ccccc2)cc(OC)c1OC`, for which the EC50 result was “inactive” and the Ki amounted to 6050 nM.
As for `CC(=O)Oc1ccccc1C(=O)O`, the EC50 entry is “inactive”.
With `CSc1ccc(/C=C2/C(C)=C(CC(=O)O)c3cc(F)ccc32)cc1`, the EC50 entry is “inactive” and the Ki was 4850 nM.
Turning to `O=C(C#Cc1ccccc1)c1ccccc1[N+](=O)[O-]`, the EC50 entry is “inactive”.
With `O=C1Nc2cccc(Br)c2/C1=C1/Cc2ccccc2C1=O`, the EC50 entry was “inactive”.
Still for that read-out and setting: the entry for `O=C1Nc2ccccc2/C1=C1/Cc2ccccc2C1=O` is “inactive”.
The same measure, in the same setting: the entry for `COc1ccc(S(=O)(=O)n2c(N)c(C#N)c(-c3cc(Br)c(OC)c(OC)c3)c2C(=O)c2ccccc2)cc1` is “inactive”.
Consider `N#Cc1c(-c2ccc(Cl)cc2)c(C(=O)c2ccccc2)n(S(=O)(=O)c2ccc([N+](=O)[O-])cc2)c1N`, for which the EC50 result is “inactive” and the inhibition constant (Ki) was 540 nM.
Regarding `O=Nc1c(-c2c(O)[nH]c3c(Cl)cccc23)[nH]c2ccccc12`, the EC50 result was “inactive”.
Same read-out and setting: the entry for `COc1ccc2cc(CC(=O)O)ccc2c1` is “inactive”.
For the compound `O=C1C(c2c(O)[nH]c3c(Br)cccc23)=Nc2ccccc21`, the EC50 result is “inactive” and the Ki stood at 2510 nM.
On the same counts, the results for `CC1=C(CC(=O)O)c2cc(F)ccc2/C1=C/c1ccc(S(C)=O)cc1` (configuration not stated) are “inactive” and 4240 nM.
Turning to `COc1ccc(S(=O)(=O)n2c(N)c(C#N)c(-c3cncc(Br)c3)c2C(=O)c2ccccc2)cc1`, the EC50 entry is “inactive” and the inhibitory constant (Ki) came to 1060 nM.
On the same counts, the results for `O=Nc1c(-c2c(O)[nH]c3ccc(Br)cc23)[nH]c2ccccc12` are “inactive” and 2980 nM.
On to `O=C1C(c2c(O)[nH]c3c(Cl)cccc23)=Nc2ccccc21`, for which the EC50 entry was “inactive”.
On to `O=C1C(c2c(O)[nH]c3ccc(Br)cc23)=Nc2ccccc21`, for which the EC50 result is “inactive” and the inhibition constant (Ki) is 1110 nM.
Consider `O=Nc1c(-c2c(O)[nH]c3c(Br)cccc23)[nH]c2ccccc12`, for which the EC50 entry was “inactive”.
Same read-out and setting: the entry for `O=C(C#Cc1ccccc1)c1ccccc1` is “inactive”; for `COc1ccc(-c2c(C#N)c(N)n(S(C)(=O)=O)c2C(=O)c2ccccc2)cc1Br` it is “inactive”.
As to `O=C(C#Cc1ccccc1)c1ccc([N+](=O)[O-])cc1`, the EC50 is 8370 nM and the Ki stood at 760 nM.
With `CCCCS(=O)(=O)n1c(N)c(C#N)c(-c2cc(OC)c(OC)c(OC)c2)c1C(=O)c1ccccc1`, the EC50 entry was “inactive”.
For `O=C1N=c2ccccc2=C1c1[nH]c(=O)[nH]c1O`, the EC50 result is “inactive” and the Ki was 1060 nM.
Turning to `O=C1C(c2c(O)[nH]c3ccccc23)=Nc2ccccc21`, the EC50 result was “inactive”.
For the compound `O=C1N=c2ccccc2=C1c1[nH]c(=S)[nH]c1O`, the EC50 entry is “inactive” and the Ki was 640 nM.
In the case of `CC(C(=O)O)c1cccc(Oc2ccccc2)c1` (configuration not stated), the EC50 result was “inactive”.
The same measure, in the same setting: for `O=C1Nc2c(Br)cccc2/C1=C1/Cc2ccccc2C1=O` the value was “inactive”; for `O=C1C(c2c(O)[nH]c3c(F)cccc23)=Nc2ccccc21`, “inactive”.
For the compound `O=Nc1c(-c2c(O)[nH]c3ccccc23)[nH]c2ccccc12`, the EC50 entry was “inactive”.
For the compound `O=Nc1c(-c2c(O)[nH]c3c(F)cccc23)[nH]c2ccccc12`, the EC50 result was “inactive” and the Ki worked out at 2870 nM.
